US8192962B2, “Processes for detecting toxic substances” (Daikin Industries, Ltd., priority 2001, dated 2012)

Tested on: Mitochondria-located protein genes
Test: DNA chip mRNA expression in yeast, mitochondria-located protein genes (Table 2)
Assay type: cell-based, Saccharomyces cerevisiae S288C
Conditions: cells incubated two hours with the chemical substance
Summary of the method: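 Values are treated/untreated fluorescence ratios from a whole-genome yeast DNA chip hybridized over 12 hours at 65° C with Cy3- or Cy5-labelled cDNA from poly(A) mRNA. Log-phase S288C yeast in YPD at 25° C had received a single toxic chemical for two hours, dosed to slow growth without killing.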

Cl[C@H]1[C@H](Cl)[C@@H](Cl)[C@@H](Cl)[C@H](Cl)[C@H]1Cl [(7), γ-hexachlorocyclohexane]
The level of expressed mRNA in the presence of chemical substance/The level of expressed mRNA in the absence of chemical substance (yeast gene YJR121W): 1.0
The level of expressed mRNA in the presence of chemical substance/The level of expressed mRNA in the absence of chemical substance (yeast gene YKL003C): 1.4
The level of expressed mRNA in the presence of chemical substance/The level of expressed mRNA in the absence of chemical substance (yeast gene YKL016C): 1.5
The level of expressed mRNA in the presence of chemical substance/The level of expressed mRNA in the absence of chemical substance (yeast gene YKL141W): 0.5
The level of expressed mRNA in the presence of chemical substance/The level of expressed mRNA in the absence of chemical substance (yeast gene YKL142W): 6.9
The level of expressed mRNA in the presence of chemical substance/The level of expressed mRNA in the absence of chemical substance (yeast gene YKL148C): 0.6
The level of expressed mRNA in the presence of chemical substance/The level of expressed mRNA in the absence of chemical substance (yeast gene YKL170W): 1.5
The level of expressed mRNA in the presence of chemical substance/The level of expressed mRNA in the absence of chemical substance (yeast gene YKL194C): 2.1
The level of expressed mRNA in the presence of chemical substance/The level of expressed mRNA in the absence of chemical substance (yeast gene YKR066C): 0.5
The level of expressed mRNA in the presence of chemical substance/The level of expressed mRNA in the absence of chemical substance (yeast gene YLL041C): 0.3
The level of expressed mRNA in the presence of chemical substance/The level of expressed mRNA in the absence of chemical substance (yeast gene YLR038C): 1.0
The level of expressed mRNA in the presence of chemical substance/The level of expressed mRNA in the absence of chemical substance (yeast gene YLR259C): 1.8
The level of expressed mRNA in the presence of chemical substance/The level of expressed mRNA in the absence of chemical substance (yeast gene YLR295C): 1.1
The level of expressed mRNA in the presence of chemical substance/The level of expressed mRNA in the absence of chemical substance (yeast gene YLR304C): 0.6
The level of expressed mRNA in the presence of chemical substance/The level of expressed mRNA in the absence of chemical substance (yeast gene YLR348C): 0.9
The level of expressed mRNA in the presence of chemical substance/The level of expressed mRNA in the absence of chemical substance (yeast gene YML054C): 1.2
The level of expressed mRNA in the presence of chemical substance/The level of expressed mRNA in the absence of chemical substance (yeast gene YML120C): 0.8
The level of expressed mRNA in the presence of chemical substance/The level of expressed mRNA in the absence of chemical substance (yeast gene YML129C): 1.8
The level of expressed mRNA in the presence of chemical substance/The level of expressed mRNA in the absence of chemical substance (yeast gene YMR023C): 1.9
The level of expressed mRNA in the presence of chemical substance/The level of expressed mRNA in the absence of chemical substance (yeast gene YMR035W): 2.3
The level of expressed mRNA in the presence of chemical substance/The level of expressed mRNA in the absence of chemical substance (yeast gene YMR083W): 1.7
The level of expressed mRNA in the presence of chemical substance/The level of expressed mRNA in the absence of chemical substance (yeast gene YMR089C): 1.2
The level of expressed mRNA in the presence of chemical substance/The level of expressed mRNA in the absence of chemical substance (yeast gene YMR152W): 0.8
The level of expressed mRNA in the presence of chemical substance/The level of expressed mRNA in the absence of chemical substance (yeast gene YMR203W): 0.8
The level of expressed mRNA in the presence of chemical substance/The level of expressed mRNA in the absence of chemical substance (yeast gene YMR267W): 1.2
The level of expressed mRNA in the presence of chemical substance/The level of expressed mRNA in the absence of chemical substance (yeast gene YNL055C): 1.2
The level of expressed mRNA in the presence of chemical substance/The level of expressed mRNA in the absence of chemical substance (yeast gene YNL071W): 1.4
The level of expressed mRNA in the presence of chemical substance/The level of expressed mRNA in the absence of chemical substance (yeast gene YNL073W): 1.1
The level of expressed mRNA in the presence of chemical substance/The level of expressed mRNA in the absence of chemical substance (yeast gene YNL104C): 0.6
The level of expressed mRNA in the presence of chemical substance/The level of expressed mRNA in the absence of chemical substance (yeast gene YNL256W): 0.6
The level of expressed mRNA in the presence of chemical substance/The level of expressed mRNA in the absence of chemical substance (yeast gene YOL096C): 1.7
The level of expressed mRNA in the presence of chemical substance/The level of expressed mRNA in the absence of chemical substance (yeast gene YOR020C): 1.7
The level of expressed mRNA in the presence of chemical substance/The level of expressed mRNA in the absence of chemical substance (yeast gene YOR037W): 2.5
The level of expressed mRNA in the presence of chemical substance/The level of expressed mRNA in the absence of chemical substance (yeast gene YOR100C): 1.6
The level of expressed mRNA in the presence of chemical substance/The level of expressed mRNA in the absence of chemical substance (yeast gene YOR130C): 1.3
The level of expressed mRNA in the presence of chemical substance/The level of expressed mRNA in the absence of chemical substance (yeast gene YOR142W): 1.0
The level of expressed mRNA in the presence of chemical substance/The level of expressed mRNA in the absence of chemical substance (yeast gene YOR150W): 1.2
The level of expressed mRNA in the presence of chemical substance/The level of expressed mRNA in the absence of chemical substance (yeast gene YOR176W): 0.5
The level of expressed mRNA in the presence of chemical substance/The level of expressed mRNA in the absence of chemical substance (yeast gene YOR187W): 1.5
The level of expressed mRNA in the presence of chemical substance/The level of expressed mRNA in the absence of chemical substance (yeast gene YOR316C): 1.4
The level of expressed mRNA in the presence of chemical substance/The level of expressed mRNA in the absence of chemical substance (yeast gene YPL040C): 0.8
The level of expressed mRNA in the presence of chemical substance/The level of expressed mRNA in the absence of chemical substance (yeast gene YPL134C): 1.2
The level of expressed mRNA in the presence of chemical substance/The level of expressed mRNA in the absence of chemical substance (yeast gene YPL135W): 1.2
The level of expressed mRNA in the presence of chemical substance/The level of expressed mRNA in the absence of chemical substance (yeast gene YPL215W): 0.7
The level of expressed mRNA in the presence of chemical substance/The level of expressed mRNA in the absence of chemical substance (yeast gene YPL262W): 1.3
The level of expressed mRNA in the presence of chemical substance/The level of expressed mRNA in the absence of chemical substance (yeast gene YPR024W): 1.4
The level of expressed mRNA in the presence of chemical substance/The level of expressed mRNA in the absence of chemical substance (yeast gene YPR037C): 1.2
The level of expressed mRNA in the presence of chemical substance/The level of expressed mRNA in the absence of chemical substance (yeast gene YPR047W): 1.8
The level of expressed mRNA in the presence of chemical substance/The level of expressed mRNA in the absence of chemical substance (yeast gene YPR067W): 1.5
The level of expressed mRNA in the presence of chemical substance/The level of expressed mRNA in the absence of chemical substance (yeast gene YPR134W): 1.5
